Results from ChEMBL document CHEMBL1127181, “Novel sigma receptor ligands 1” (Bioorg Med Chem Lett, 1993).

target: Glutamate [NMDA] receptor; assay: Binding affinity towards PCP receptor in guinea pig brain membrane using radiolabeled ligand [3H]TCP (1-[1-(2-thienyl)cyclohexyl]piperidine) was determined; format: cell membranes, Cavia porcellus

SMILES | Ki [µM]
O=C1C(c2ccc(F)cc2)COC12CCN(Cc1ccccc1)CC2 (centres undefined) | 2.23
CCN(CC)CCCC1(C)OC=C(c2ccccc2)C1=O (centres undefined) | 100
O=C1C(c2ccc(F)cc2)=COC12CCN(CC1CCCCC1)CC2 | 12
O=C1C=C(c2ccccc2)OC12CCN(CCc1ccccc1)CC2 | > 10
O=C1C=C(c2ccccc2)OC12CCN(Cc1ccccc1)CC2 | 4.4

Continued, values first:

Ki [µM] | SMILES
2.03 | O=C1C(c2ccc(F)cc2)=COC12CCN(Cc1ccc(F)cc1)CC2
8.3 | O=C1C=C(c2ccc(F)cc2)OC12CCN(CCc1ccccc1)CC2
> 10 | O=C1C(c2ccccc2)=COC12CCN(CC1CCCCC1)CC2
> 10 | O=C1C(c2ccc(F)cc2)=COC12CCN(Cc1ccccc1)CC2
